The test system of test [1] is summergrass, giant foxtail, redroot pigweed and threeseeded copperleaf. Nature of the test: Test Example 5: field test, foliar treatment, weed coverage (residual activity). The test is classed as in vivo. Conditions: for Weed coverage (%) 6th day after treatment / Weed coverage (%) 20th day after treatment / Weed coverage (%) 33rd day after treatment: field, foliar treatment with 0.25 vol % Agral, coverage relative to non-treated area; for change in weed coverage: on the 20th day after the treatment, single active ingredient, field test. The text has this:
In a field in which summergrass (Digitaria ciliaris (Retz.) Koel), giant foxtail (Setaria faberi Herrm.), redroot pigweed (Amaranthus retroflexus L.) and threeseeded copperleaf (Acalypha australis L.) emerged, was compartmentalized into compartments of 0.5×1 m. When summergrass reached from 5 to 10 leaf stage, giant foxtail reached from 6 to 7 leaf stage, threeseeded copperleaf reached from 4 to 10 leaf stage and redroot pigweed reached from 6 to 9 leaf stage, SHIBAGEN DF (tradename) and Unimark (tradename) in predetermined amounts were diluted with water (corresponding to 200 L/ha) containing 0.25 vol % of an agricultural adjuvant Agral (tradename) and applied for foliar treatment by a small sprayer in each compartment.
On the 6th, 20th and 33rd days after the treatment, the weed coverage (%) of the above four types of weeds in each compartment was visually observed, and the results are shown in Table 5 and FIG. 1. The weed coverage (%) was calculated in accordance with the following formula.
A: (the area of the ground surface covered with the weed aerial part (leaves and stem) in the treated area)
B: (the area of the ground surface covered with the weed aerial part (leaves and stem) in the non-treated area) Weed coverage(%)=(A/B)×100
In FIG. 1, x-x represents the weed coverage in the area treated with flazasulfuron, ▴-▴ represents the weed coverage in the area treated with metribuzin, and ●-● represents the weed coverage in the area treated with flazasulfuron and metribuzin in combination.

The subject of test [2] is goosegrass. Nature of the test: Test Example 2: pot test, foliar treatment at 5 leaf stage, visual growth inhibition of goosegrass. The test is classed as in vivo, Eleusine indica (L.) Gaertn. Conditions: Eleusine indica, foliar treatment at 5 leaf stage with 0.25 vol % Agral, 28th day after treatment, read-out: Growth inhibition rate (%) of goosegrass, Measured value. As for the experimental part:
Upland field soil was put into a 1/1,000,000 ha pot, and seeds of goosegrass (Eleusine indica (L.) Gaertn.) were sown. When goosegrass reached 5 leaf stage, SHIBAGEN DF (tradename) and Unimark (tradename) in predetermined amounts were diluted with water (corresponding to 200 L/ha) containing 0.25 vol % of an agricultural adjuvant (tradename: Agral, manufactured by Syngenta crop protection) and applied for foliar treatment by a small sprayer.
On the 28th day after the treatment, the state of growth of goosegrass was visually observed, and the growth inhibition rate (%) obtained in the same manner as in Test Example 1 is shown in Table 2.

In test [3] the test system is ivy-leaved morningglory. Nature of the test: Test Example 3: pot test, treatment the day after sowing, visual growth inhibition of ivy-leaved morningglory. The class given is in vivo, Ipomoea hederacea (L.) Jacq. Conditions: Ipomoea, treatment on the day after sowing, 14th day after treatment, read-out: Growth inhibition rate (%) of ivy-leaved morningglory, Measured value. As for the experimental part: Upland field soil was put into a 1/1,000,000 ha pot, and seeds of ivy-leaved momingglory (Ipomoea hederacea (L.) Jacq.) were sown. On the next day, SHIBAGEN DF (tradename) and Unimark (tradename) in predetermined amounts were diluted with water corresponding to 300 L/ha and applied for […] by a small sprayer. On the 14th day after the treatment, the state of growth of ivy-leaved momingglory was visually observed, and the growth inhibition rate (%) obtained in the same manner as in Test Example 1 is shown in Table 3.

The test system of test [4] is goosegrass. Nature of the test: Test Example 1: pot test, soil treatment, visual growth inhibition of goosegrass. The test is classed as in vivo, Eleusine indica (L.) Gaertn. Conditions: Eleusine indica, 24 h, soil treatment one day after sowing, 14th day after treatment, read-out: Growth inhibition rate (%) of goosegrass, Measured value. As to the method: Upland field soil was put into a 1/1,000,000 hectare pot, and seeds of goosegrass (Eleusine indica (L.) Gaertn.) were sown. One day later, water dispersible granules containing flazasulfuron as an active ingredient (tradename: SHIBAGEN DF, manufactured by Ishihara Sangyo Kaisha, Ltd.) and water dispersible granules containing metribuzin as an active ingredient (tradename: Unimark, manufactured by UPL) in predetermined amounts were diluted with water corresponding to 200 L/ha and applied for soil treatment by a small sprayer.
On the 14th day after the treatment, the state of growth of goosegrass was visually observed to determine the growth inhibition rate (%) (measured value) in accordance with the following evaluation standard. Further, in accordance with the Colby's formula, the growth inhibition rate (%) (calculated value) was calculated. Growth inhibition rate(%)=0 (equivalent to the non-treated area) to 100 (complete kill)

The subject of test [5] is shattercane. Nature of the test: Test Example 4: pot test, soil treatment, visual growth inhibition of shattercane. The test is classed as in vivo, Sorghum bicolor (L.) Moench. To be noted: Sorghum bicolor, soil treatment on the day after sowing, 14th day after treatment, read-out: Growth inhibition rate (%) of shattercane, Measured value. As for the experimental part:
Upland field soil was put into a 1/1,000,000 ha pot, and seeds of shattercane (Sorghum bicolor (L.) Moench.) were sown. On the next day, SHIBAGEN DF (tradename) and Unimark (tradename) in predetermined amounts were diluted with water corresponding to 300 L/ha and applied for soil treatment by a small sprayer.
On the 14th day after the treatment, the state of growth of shattercane was visually observed, and the growth inhibition rate (%) obtained in the same manner as in Test Example 1 is shown in Table 4.

One may read the inhibition as the change of the read-out against control, counted positive when it falls.

Regarding `COc1cc(OC)nc(NC(=O)NS(=O)(=O)c2ncccc2C(F)(F)F)n1` [Flazasulfuron, 1-(4,6-dimethoxypyrimidin-2-yl)-3-(3-trifluoromethyl-2-pyridylsulfonyl)urea], in test [1] (dose 37.5 g/ha), the “Weed coverage (%) 6th day after treatment” value stood at 26%, the “Weed coverage (%) 20th day after treatment” value is 30% and the “Weed coverage (%) 33rd day after treatment” value turned out to be 65%. Further, in test [1], the “change in weed coverage” value is “an increase in the weed coverage was confirmed”. Also, the inhibition at 37.5 g/ha in test [2] (dose 37.5 g/ha) was 25%. Moreover, the inhibition at 100 g/ha in test [3] (dose 100 g/ha) came out at 80%. For the same compound, the inhibition at 18.75 g/ha in test [4] (dose 18.75 g/ha, 0 = non-treated, 100 = complete kill) came out at 30%. Also, the inhibition at 15 g/ha in test [5] (dose 15 g/ha) stood at 30%.
On to `CSc1nnc(C(C)(C)C)c(=O)n1N` [Metribuzin, 4-amino-6-tertiary butyl-3-methylthio-1,2,4-triazin-5(4H)-one], for which, in test [1] (dose 1,200 g/ha), the “Weed coverage (%) 6th day after treatment” value was 19%, the “Weed coverage (%) 20th day after treatment” value is recorded as 24% and the “Weed coverage (%) 33rd day after treatment” value is listed as 35%. Also, in test [1], the “change in weed coverage” value is reported as “an increase in the weed coverage was confirmed”. For the same compound, the inhibition at 800 g/ha in test [2] (dose 800 g/ha) was 83%. Besides, in test [2] (dose 1,000 g/ha), the inhibition at 1000 g/ha was 90%. In addition, in test [3] (dose 300 g/ha), the inhibition at 300 g/ha was 0%. For the same compound, the inhibition at 300 g/ha in test [4] (dose 300 g/ha) was 55%. Moreover, in test [4] (dose 600 g/ha), the inhibition at 600 g/ha is 73%. Besides, the inhibition at 2000 g/ha in test [5] (dose 2,000 g/ha) was 20%.

The values above are taken from patent publication US8921271B2, “Herbicidal composition comprising flazasulfuron and metribuzin” (Ishihara Sangyo Kaisha, Ltd., priority 2011, dated 2014).
